Measurements from ChEMBL document CHEMBL1201862, “PubChem BioAssay data set” (2004).
Active and inactive are the calls of the source.

Tests used:
[1] = cervical cancer cell viability loss – HeLa, 24 h, plate reader, powder samples, set 3, cytotoxicity control, dose response (AID 651864); type: functional, cell-based
[2] = inhibitors acting on PAX2 in cells – cell-based, plate reader, dry powder samples, selectivity assay for PAX8 inhibitor project, dose response (AID 743048); type: functional;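 note: HEK293 cells carrying a WT1 promoter luciferase reporter driven by expressed Pax2; potency is for inhibition of Pax2 driven reporter signal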
[3] = PAX8-dependent cell viability loss – plate reader, dry powder, dose response (AID 743049); type: functional, cell-based
[4] = target: T1, Replicative DNA helicase DnaB (Mycobacterium tuberculosis, UniProt P9WMR3); assay: DnaB intein splicing inhibitors, dose response, biochemical, cell-free fluorescence (AID 449749); type: functional
T1 sequence (P9WMR3 whole entry): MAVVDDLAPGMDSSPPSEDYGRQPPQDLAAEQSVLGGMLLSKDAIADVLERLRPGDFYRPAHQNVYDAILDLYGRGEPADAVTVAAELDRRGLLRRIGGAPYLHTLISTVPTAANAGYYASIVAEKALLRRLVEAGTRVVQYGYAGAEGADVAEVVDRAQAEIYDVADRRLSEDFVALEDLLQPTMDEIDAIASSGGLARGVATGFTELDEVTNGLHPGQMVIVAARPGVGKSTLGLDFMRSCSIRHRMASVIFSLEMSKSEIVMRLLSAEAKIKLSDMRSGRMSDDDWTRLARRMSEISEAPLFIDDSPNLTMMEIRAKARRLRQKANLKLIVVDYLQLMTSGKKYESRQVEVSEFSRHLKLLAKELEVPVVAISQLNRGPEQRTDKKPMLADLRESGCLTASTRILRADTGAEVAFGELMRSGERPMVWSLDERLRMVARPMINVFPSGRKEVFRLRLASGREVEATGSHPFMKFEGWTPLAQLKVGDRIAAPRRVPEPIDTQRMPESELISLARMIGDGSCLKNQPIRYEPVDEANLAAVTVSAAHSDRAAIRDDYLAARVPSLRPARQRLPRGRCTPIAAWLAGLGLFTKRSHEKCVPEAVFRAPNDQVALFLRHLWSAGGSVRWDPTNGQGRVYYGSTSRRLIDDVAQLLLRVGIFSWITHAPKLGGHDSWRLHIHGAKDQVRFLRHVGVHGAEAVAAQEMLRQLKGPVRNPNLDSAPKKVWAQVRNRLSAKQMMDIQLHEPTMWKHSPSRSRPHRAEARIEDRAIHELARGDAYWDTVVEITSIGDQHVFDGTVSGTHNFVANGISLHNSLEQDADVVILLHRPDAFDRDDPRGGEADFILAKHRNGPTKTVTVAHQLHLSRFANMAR

[5] = OVCAR-3 cell viability loss – plate reader, dry powder samples, PAX8 inhibitor project, dose response (AID 743044); type: functional, cell-based
[6] = COV434 cell viability loss – plate reader, dry powder, SA7, cytotoxicity control for PAX8 inhibitor project, dose response (AID 743145); type: functional, cell-based
[7] = toxicity toward immortalized ovarian surface epithelium – cell-based, plate reader, dry powder samples, cytotoxicity control for PAX8 inhibitor project, dose response (AID 743045); type: functional
Protein RecA = target: T2, Protein RecA (Mycobacterium tuberculosis, UniProt P9WHJ3); assay: Fluorescence Cell-Free Homogeneous Dose Retest to Identify Inhibitors of RecA-Intein Splicing Activity. [Related pubchem assays (depositor defined):AID2097, AID2223, AID489010, AID492950]; type: functional
T2 sequence (P9WHJ3 whole entry): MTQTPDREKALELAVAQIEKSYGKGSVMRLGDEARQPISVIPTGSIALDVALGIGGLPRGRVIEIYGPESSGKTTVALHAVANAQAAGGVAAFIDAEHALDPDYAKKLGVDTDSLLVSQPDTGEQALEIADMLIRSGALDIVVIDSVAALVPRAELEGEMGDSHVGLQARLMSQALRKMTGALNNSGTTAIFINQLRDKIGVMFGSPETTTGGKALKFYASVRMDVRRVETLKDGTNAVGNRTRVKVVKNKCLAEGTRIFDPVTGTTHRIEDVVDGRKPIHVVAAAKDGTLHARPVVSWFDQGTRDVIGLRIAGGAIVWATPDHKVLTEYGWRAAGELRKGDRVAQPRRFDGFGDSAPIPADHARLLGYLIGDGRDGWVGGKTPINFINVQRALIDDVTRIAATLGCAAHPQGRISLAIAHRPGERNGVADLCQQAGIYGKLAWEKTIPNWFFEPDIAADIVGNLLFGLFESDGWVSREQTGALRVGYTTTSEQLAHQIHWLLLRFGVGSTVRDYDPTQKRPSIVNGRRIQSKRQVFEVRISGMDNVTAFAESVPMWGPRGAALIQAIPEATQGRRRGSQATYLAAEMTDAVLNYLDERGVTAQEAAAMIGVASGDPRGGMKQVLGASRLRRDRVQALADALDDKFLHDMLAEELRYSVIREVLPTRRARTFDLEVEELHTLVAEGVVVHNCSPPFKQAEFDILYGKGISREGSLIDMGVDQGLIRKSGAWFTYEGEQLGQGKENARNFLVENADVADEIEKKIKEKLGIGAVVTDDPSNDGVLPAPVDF

Paired box protein Pax-8 = Paired box protein Pax-8 (Homo sapiens, UniProt Q06710); assay: PAX8 transcriptional activity inhibition in RMG-I – RMG-I cells, luciferase, cherry-pick, dose response (AID 687027); type: functional, cell-based;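 note: luciferase reporter driven by Pax8 target thyroperoxidase promoter measured by SteadyGlo luminescence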
Sequence of Paired box protein Pax-8 (Q06710 whole entry): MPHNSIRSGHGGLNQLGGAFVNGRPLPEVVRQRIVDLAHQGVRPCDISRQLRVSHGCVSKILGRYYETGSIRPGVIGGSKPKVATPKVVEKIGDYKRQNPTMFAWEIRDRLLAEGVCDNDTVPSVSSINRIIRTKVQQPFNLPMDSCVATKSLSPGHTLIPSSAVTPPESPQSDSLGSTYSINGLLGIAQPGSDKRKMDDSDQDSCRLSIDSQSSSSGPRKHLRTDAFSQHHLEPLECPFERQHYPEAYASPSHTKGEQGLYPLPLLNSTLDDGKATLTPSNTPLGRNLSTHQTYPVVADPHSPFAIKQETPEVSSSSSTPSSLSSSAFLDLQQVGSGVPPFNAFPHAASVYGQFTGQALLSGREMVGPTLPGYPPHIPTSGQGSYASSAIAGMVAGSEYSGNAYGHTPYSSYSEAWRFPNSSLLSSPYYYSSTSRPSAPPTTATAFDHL

[8] = IC50 of Artemis nuclease activity blockers – biochemical, fluorescence intensity, dose response (AID 720701); type: functional;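 note: Artemis endonuclease enzyme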
[9] = Luminescence Cell-Based Dose Retest to Confirm Inhibitors of Cancer Stem Cells. [Related pubchem assays (depositor defined):AID2717, AID2721]; type: functional; conditions: Homo sapiens
[10] = luciferase reporter signal suppression in cells – H4 neuroglioma cells, luminescence, dose response (AID 1990); type: functional, cell-based
Cytochrome P450 2D6 = Cytochrome P450 2D6 (Homo sapiens, UniProt P10635);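 note: CYP2D6 member of a cytochrome P450 panel assay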
Sequence of Cytochrome P450 2D6 (P10635 whole entry): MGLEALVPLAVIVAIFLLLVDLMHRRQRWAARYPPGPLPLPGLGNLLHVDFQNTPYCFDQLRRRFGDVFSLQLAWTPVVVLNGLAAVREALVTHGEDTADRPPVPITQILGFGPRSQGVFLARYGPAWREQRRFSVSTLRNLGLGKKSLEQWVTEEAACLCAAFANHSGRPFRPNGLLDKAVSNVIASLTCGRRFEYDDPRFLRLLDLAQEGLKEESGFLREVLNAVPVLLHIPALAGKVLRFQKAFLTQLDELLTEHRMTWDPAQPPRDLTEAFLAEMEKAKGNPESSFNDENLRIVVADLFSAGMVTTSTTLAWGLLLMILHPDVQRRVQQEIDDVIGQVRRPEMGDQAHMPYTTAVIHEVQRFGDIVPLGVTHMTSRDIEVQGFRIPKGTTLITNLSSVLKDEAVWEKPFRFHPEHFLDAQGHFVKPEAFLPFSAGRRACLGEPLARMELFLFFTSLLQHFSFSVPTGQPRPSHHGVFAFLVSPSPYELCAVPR

[11] = test system: Streptococcus sp. 'group A'; assay: Streptococcus pyogenes SK(-)GAS viability under kanamycin – luminescence, BacTiterGlo, confirmation, counter-screen for streptokinase expression inhibitor project, dose response (AID 1900); type: functional, organism-based
[12] = alpha-synuclein stem-loop luciferase translation blockers – H4 neuroglioma cells, luminescence, confirmation (AID 1988); type: functional, cell-based
Cytochrome P450 2C19 = Cytochrome P450 2C19 (Homo sapiens, UniProt P33261); assay: Cytochrome panel assay with activity outcomes. Panel member name: p450-cyp2c19 Compounds with AC50 equal or less than 10 uM are considered active; type: functional; conditions: read-out: AC50
Sequence of Cytochrome P450 2C19 (P33261 whole entry): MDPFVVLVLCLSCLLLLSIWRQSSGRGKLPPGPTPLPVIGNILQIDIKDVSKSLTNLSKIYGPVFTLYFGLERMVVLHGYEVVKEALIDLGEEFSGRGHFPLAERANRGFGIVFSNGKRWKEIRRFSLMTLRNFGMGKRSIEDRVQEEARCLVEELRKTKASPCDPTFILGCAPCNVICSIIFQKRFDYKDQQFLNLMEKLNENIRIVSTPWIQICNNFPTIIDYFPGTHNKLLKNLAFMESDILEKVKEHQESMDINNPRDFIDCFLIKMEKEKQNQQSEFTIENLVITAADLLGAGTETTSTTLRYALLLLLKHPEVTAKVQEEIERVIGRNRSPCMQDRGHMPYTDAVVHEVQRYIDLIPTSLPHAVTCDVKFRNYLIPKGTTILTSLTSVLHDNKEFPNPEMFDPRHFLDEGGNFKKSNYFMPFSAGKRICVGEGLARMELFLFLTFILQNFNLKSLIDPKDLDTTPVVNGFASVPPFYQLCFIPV

[13] = Luminescence Cell-Based Dose Response HTS to Identify Inhibitors of 5'UTR Stem-Loop Driven Prion Protein mRNA Translation in H4 Neuroglioblastoma Cells. [Related pubchem assays: 1827 (Project Summary), 1813 (Primary HTS)]; type: functional
Streptococcus = assay: GAS UMAA2166 growth inhibition – luminescence, BacTiterGlo, counter-screen for streptokinase expression inhibitor project, dose response (AID 1915); type: functional, organism-based;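 note: potency for reduction of bacterial viability or growth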
Kallikrein-7 = Kallikrein-7 (Homo sapiens, UniProt P49862); assay: Fluorescence Intensity-based biochemical primary high throughput dose response assay to identify activators of kallikrein-7 (K7) zymogen.
Sequence of Kallikrein-7 (P49862 whole entry): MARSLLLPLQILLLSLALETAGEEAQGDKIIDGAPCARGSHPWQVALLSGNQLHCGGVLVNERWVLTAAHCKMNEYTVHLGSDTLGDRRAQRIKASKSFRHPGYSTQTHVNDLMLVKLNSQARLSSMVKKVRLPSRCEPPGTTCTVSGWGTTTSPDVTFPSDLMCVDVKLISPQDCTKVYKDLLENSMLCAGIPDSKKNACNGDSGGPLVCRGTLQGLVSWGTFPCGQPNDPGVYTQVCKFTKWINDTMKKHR

[14] = A Cell Based Secondary Assay To Explore Cytotoxicity of Compounds that Sensitize Mycobacterium Tuberculosis to Beta-Lactam Antibiotics.; type: functional
[15] = loss of viability in HepG2 cells – cell-based, CellTiter-Glo, cherry-picked, cytotoxicity control for Shn3 inhibitor project, dose response (AID 624134); type: functional
[16] = EF1alpha-driven Renilla reporter with control 3'UTR suppression – Clone20-Shn3RL cells, dual-Glo, cherry-pick, set 2, counter-screen for Shn3 3'UTR targeting project, dose response (AID 720724); type: functional, cell-based; conditions: Dual-Go Shn3RL
[17] = reduction of Shn3 3'UTR-driven luciferase in osteoblasts – cell-based, Clone20 osteoblasts, firefly luciferase, cherry-picked, dose response (AID 624132); type: functional;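 note: firefly luciferase luminescence from reporter carrying the Shn3 3'UTR in osteoblasts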
[18] = Shn3 3'UTR reporter signal decrease – cell-based, Clone20 osteoblasts, firefly luciferase, cherry-pick, set 2, Schnurri-3 inhibitor project, dose response (AID 720490); type: functional;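 note: actives lower the luminescence signal as inhibitors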

c1ccc(Cn2nnc(NCc3ccc(N4CCCC4)cc3)n2)cc1
AC50 [1]: > 160 µM (inactive)

O=C1/C(=C/c2ccccc2F)SC(=S)N1CC(=O)N1CCCCC1c1cccnc1 (centres undefined)
AC50 [2]: > 100 µM (inactive)
AC50 [3]: 44.9 µM (active)
AC50 [4]: 17.9 µM (active)
AC50 [5]: 26.3 µM (active)
AC50 [6]: 38.3 µM (active)
AC50 [7]: 43.5 µM (active)
EC50 (Protein RecA): 18.6 µM (active)
AC50 (Paired box protein Pax-8): 5.04 µM (active)

Nc1nn2c(O)cc(-c3ccccc3)nc2c1N=Nc1ccccc1
IC50 [8]: 19.9 µM (active)
AC50 [9]: 1.62 µM (active)
EC50 [10]: > 60 µM (not active)
AC50 (Cytochrome P450 2D6): 28.2 µM (inconclusive)
EC50 [11]: 1.67 µM (active)
EC50 [12]: 10.5 µM (active)
AC50 (Cytochrome P450 2C19): 28.2 µM (inconclusive)
EC50 [13]: 12.7 µM (active)
EC50 (Streptococcus): 4.43 µM (active)

COc1ccc(OC(=O)c2cccc([N+](=O)[O-])c2)c(C(=O)/C=C/c2cccs2)c1
EC50 (Kallikrein-7): 46 µM (inactive)
CC50 [14]: 39.6 µM (active)

CN(CC(=O)Nc1ccccc1Cl)C(=O)c1cccc(S(=O)(=O)N2CCN(c3ccccc3)CC2)c1
AC50 [15]: > 70 µM (inactive)
AC50 [16]: 47.9 µM (active)
AC50 [17]: 3.84 µM (active)
AC50 [18]: 4.32 µM (active)
